PubChem BioAssay (NCI)
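GI50: concentration for 50% inhibition of growth. At the TGI there is no net growth.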

Experiments:
Experiment in all cases: NCI-60 cell line screen, 384-well format
MCF7 breast = tested on: MCF7 breast
SK-MEL-5 melanoma = tested on: SK-MEL-5 melanoma
EKVX NSCLC = tested on: EKVX NSCLC
HCT-15 colon = tested on: HCT-15 colon
HOP-92 NSCLC = tested on: HOP-92 NSCLC
SF-295 CNS = tested on: SF-295 CNS
UACC-62 melanoma = tested on: UACC-62 melanoma
U251 glioblastoma = tested on: U251 glioblastoma
UACC-257 melanoma = tested on: UACC-257 melanoma
NCI-H226 lung = tested on: NCI-H226 lung
BT-549 breast = tested on: BT-549 breast
IGROV1 ovarian = tested on: IGROV1 ovarian
SR leukemia = tested on: SR leukemia
SK-MEL-2 melanoma = tested on: SK-MEL-2 melanoma
OVCAR-4 ovarian = tested on: OVCAR-4 ovarian
A498 renal = tested on: A498 renal
MALME-3M melanoma = tested on: MALME-3M melanoma
SNB-19 CNS = tested on: SNB-19 CNS
NCI/ADR-RES ovarian = tested on: NCI/ADR-RES ovarian
SF-539 CNS = tested on: SF-539 CNS
MOLT-4 leukemia = tested on: MOLT-4 leukemia
K-562 leukemia = tested on: K-562 leukemia
OVCAR-5 ovarian = tested on: OVCAR-5 ovarian
SK-OV-3 ovarian = tested on: SK-OV-3 ovarian
SN12C renal = tested on: SN12C renal
NCI-H23 lung = tested on: NCI-H23 lung
T-47D breast = tested on: T-47D breast
DU-145 prostate = tested on: DU-145 prostate
HCT-116 colon = tested on: HCT-116 colon
SW-620 colon = tested on: SW-620 colon
OVCAR-3 ovarian = tested on: OVCAR-3 ovarian
HT29 colon = tested on: HT29 colon
NCI-H522 lung = tested on: NCI-H522 lung
RPMI-8226 leukemia = tested on: RPMI-8226 leukemia
SK-MEL-28 melanoma = tested on: SK-MEL-28 melanoma
LOX IMVI melanoma = tested on: LOX IMVI melanoma
NCI-H460 NSCLC = tested on: NCI-H460 NSCLC
PC-3 prostate = tested on: PC-3 prostate
SF-268 CNS = tested on: SF-268 CNS
M14 melanoma = tested on: M14 melanoma
SNB-75 CNS = tested on: SNB-75 CNS
ACHN renal = tested on: ACHN renal
786-0 renal = tested on: 786-0 renal
MDA-MB-435 melanoma = tested on: MDA-MB-435 melanoma
KM12 colon = tested on: KM12 colon
HS 578T breast = tested on: HS 578T breast
COLO 205 colon = tested on: COLO 205 colon
HL-60(TB) leukemia = tested on: HL-60(TB) leukemia
UO-31 renal = tested on: UO-31 renal
TK-10 renal = tested on: TK-10 renal
A549 NSCLC = tested on: A549 NSCLC
HOP-62 NSCLC = tested on: HOP-62 NSCLC
NCI-H322M lung = tested on: NCI-H322M lung
MDA-MB-231 breast = tested on: MDA-MB-231 breast
HCC-2998 colon = tested on: HCC-2998 colon
RXF 393 renal = tested on: RXF 393 renal
CAKI-1 renal = tested on: CAKI-1 renal
CCRF-CEM leukemia = tested on: CCRF-CEM leukemia
MDA-MB-468 breast = tested on: MDA-MB-468 breast

CCCCc1nc2cc(/C=C/C(=O)NO)ccc2n1CCN(CC)CC
GI50 (MCF7 breast): 185 nM | TGI (MCF7 breast): 1130 nM | GI50 (SK-MEL-5 melanoma): 129 nM | TGI (SK-MEL-5 melanoma): 290 nM | GI50 (EKVX NSCLC): 649 nM | TGI (EKVX NSCLC): 4320 nM | GI50 (HCT-15 colon): 483 nM | TGI (HCT-15 colon): 2110 nM | GI50 (HOP-92 NSCLC): 176 nM | TGI (HOP-92 NSCLC): 518 nM | GI50 (SF-295 CNS): 186 nM | TGI (SF-295 CNS): 397 nM | GI50 (UACC-62 melanoma): 83.4 nM | TGI (UACC-62 melanoma): 235 nM | GI50 (U251 glioblastoma): 174 nM | TGI (U251 glioblastoma): 503 nM | GI50 (UACC-257 melanoma): 178 nM | TGI (UACC-257 melanoma): 561 nM | GI50 (NCI-H226 lung): 697 nM | TGI (NCI-H226 lung): 2100 nM | GI50 (BT-549 breast): 230 nM | TGI (BT-549 breast): 1160 nM | GI50 (IGROV1 ovarian): 119 nM | TGI (IGROV1 ovarian): 539 nM | GI50 (SR leukemia): < 10 nM | TGI (SR leukemia): 107 nM | GI50 (SK-MEL-2 melanoma): 169 nM | TGI (SK-MEL-2 melanoma): 339 nM | GI50 (OVCAR-4 ovarian): 392 nM | TGI (OVCAR-4 ovarian): 1950 nM | GI50 (A498 renal): 298 nM | TGI (A498 renal): 1070 nM | GI50 (MALME-3M melanoma): 130 nM | TGI (MALME-3M melanoma): 402 nM | GI50 (SNB-19 CNS): 511 nM | TGI (SNB-19 CNS): 1980 nM | GI50 (NCI/ADR-RES ovarian): 489 nM | TGI (NCI/ADR-RES ovarian): 2330 nM | GI50 (SF-539 CNS): 415 nM | TGI (SF-539 CNS): 2480 nM | GI50 (MOLT-4 leukemia): 30.9 nM | TGI (MOLT-4 leukemia): 197 nM | GI50 (K-562 leukemia): 17.5 nM | TGI (K-562 leukemia): 205 nM | GI50 (OVCAR-5 ovarian): 119 nM | TGI (OVCAR-5 ovarian): 484 nM | GI50 (SK-OV-3 ovarian): 239 nM | TGI (SK-OV-3 ovarian): 911 nM | GI50 (SN12C renal): 286 nM | TGI (SN12C renal): 1290 nM | GI50 (NCI-H23 lung): 296 nM | TGI (NCI-H23 lung): 1440 nM | GI50 (T-47D breast): 136 nM | TGI (T-47D breast): 310 nM | GI50 (DU-145 prostate): 120 nM | TGI (DU-145 prostate): 375 nM | GI50 (HCT-116 colon): 125 nM | TGI (HCT-116 colon): 377 nM | GI50 (SW-620 colon): 166 nM | TGI (SW-620 colon): 334 nM | GI50 (OVCAR-3 ovarian): 181 nM | TGI (OVCAR-3 ovarian): 974 nM | GI50 (HT29 colon): 203 nM | TGI (HT29 colon): 809 nM | GI50 (NCI-H522 lung): 34.3 nM | TGI (NCI-H522 lung): 247 nM | GI50 (RPMI-8226 leukemia): < 10 nM | TGI (RPMI-8226 leukemia): 17 nM | GI50 (SK-MEL-28 melanoma): 179 nM | TGI (SK-MEL-28 melanoma): 465 nM | GI50 (LOX IMVI melanoma): 203 nM | TGI (LOX IMVI melanoma): 588 nM | GI50 (NCI-H460 NSCLC): 235 nM | TGI (NCI-H460 NSCLC): 1320 nM | GI50 (PC-3 prostate): 185 nM | TGI (PC-3 prostate): 689 nM | GI50 (SF-268 CNS): 174 nM | TGI (SF-268 CNS): 602 nM | GI50 (M14 melanoma): 358 nM | TGI (M14 melanoma): 1710 nM | GI50 (SNB-75 CNS): 119 nM | TGI (SNB-75 CNS): 1630 nM | GI50 (ACHN renal): 221 nM | TGI (ACHN renal): 955 nM | GI50 ([…]-0 renal): 317 nM | TGI (786-0 renal): 2000 nM | GI50 (MDA-MB-435 melanoma): 226 nM | TGI (MDA-MB-435 melanoma): 616 nM | GI50 (KM12 colon): 280 nM | TGI (KM12 colon): 1420 nM | GI50 (HS 578T breast): 125 nM | TGI (HS 578T breast): 317 nM | GI50 (COLO 205 colon): 178 nM | TGI (COLO 205 colon): 419 nM | GI50 (HL-60(TB) leukemia): 144 nM | TGI (HL-60(TB) leukemia): 280 nM | GI50 (UO-31 renal): 82.9 nM | TGI (UO-31 renal): 1520 nM | GI50 (TK-10 renal): 258 nM | TGI (TK-10 renal): 948 nM | GI50 (A549 NSCLC): 321 nM | TGI (A549 NSCLC): 1270 nM | GI50 (HOP-62 NSCLC): 250 nM | TGI (HOP-62 NSCLC): 1640 nM | GI50 (NCI-H322M lung): 206 nM | TGI (NCI-H322M lung): 1140 nM | GI50 (MDA-MB-231 breast): 187 nM | TGI (MDA-MB-231 breast): 613 nM | GI50 (HCC-2998 colon): 106 nM | TGI (HCC-2998 colon): 414 nM | GI50 (RXF 393 renal): < 10 nM | TGI (RXF 393 renal): 237 nM | GI50 (CAKI-1 renal): 206 nM | TGI (CAKI-1 renal): 709 nM | GI50 (CCRF-CEM leukemia): 62.3 nM | TGI (CCRF-CEM leukemia): 206 nM | GI50 (MDA-MB-468 breast): 134 nM | TGI (MDA-MB-468 breast): 356 nM
